# Columns and labels:
# [1] = system: rabbit serum obtained by immunizing a rabbit with the SARS-CoV strain Frankfurt 1; type: binding; design: Binding of a rabbit serum to linear peptides / Binding of a rabbit serum to looped peptides / Rabbit serum linear peptides / Rabbit serum looped peptides / Binding of a rabbit serum to linear peptides of protein N of SARS-CoV Urbani (Rabbit serum linear peptides) / Binding of a rabbit serum to looped/cyclic peptides of protein N of SARS-CoV Urbani (Rabbit serum looped peptides): unit not given here
# [2] = system: control sera (pooled serum of ten healthy LUMC hospital workers; commercial negative donor pooled serum from the Dutch bloodbank); type: binding, human; design: Binding of Control serum LUMC to linear peptides / Binding of Control serum Blood-bank to linear peptides / Binding of Control serum LUMC to looped peptides / Binding of Control Serum Blood-Bank to Looped peptides / Binding of Control serum LUMC to linear peptides of the protein M of SARS-CoV Urbani / Binding of Control serum Blood-bank to linear peptides of the protein M of SARS-CoV Urbani / Binding of Control serum LUMC to looped peptides of the protein M of SARS-CoV Urbani / Binding of Control Serum Blood-Bank to Looped peptides of the protein M of SARS-CoV Urbani: unit not given here
# [3] = system: recombinant human anti-SARS-CoV antibody 03-018; type: binding; design: Binding of antibody 03-018 to linear peptides of the N protein of SARS-CoV Urbani / Binding of antibody 03-018 to looped/cyclic peptides of the N protein of SARS-CoV Urbani: unit not given here
# [4] = system: antibodies in sera from SARS patients (sera 1a, 1b, 2, 6, 37, 62, London, SARS-yellow, SARS-green); type: binding, human; design: Binding of serum 6 to linear peptides of protein X1 of SARS-CoV Urbani / Binding of serum 37 to linear peptides of protein X1 of SARS-CoV Urbani / Binding of serum 6 to looped/cyclic peptide (PEPSCAN-ELISA) / Binding of serum 37 to looped/cyclic peptide (PEPSCAN-ELISA) / Binding of serum 37 to looped/cyclic peptides of protein X1 of SARS-CoV Urbani / Binding of serum 6 to linear peptides of protein X2 / Binding of serum 37 to linear peptides of protein X2 / Binding of serum 37 to looped/cyclic peptides of protein X2 of SARS-CoV Urbani / Binding of serum 6 to linear peptides of protein M of SARS-CoV Urbani / Binding of serum 37 to linear peptides of protein M of SARS-CoV Urbani / Binding of serum 6 to looped/cyclic peptides of protein M of SARS-CoV Urbani / Binding of serum 37 to looped/cyclic peptides of protein M of SARS-CoV Urbani / Binding of serum 6 to linear peptides of protein X3 of SARS-CoV Urbani / Binding of serum 37 to linear peptides of protein X3 of SARS-CoV Urbani / Binding of serum 37 to looped/cyclic peptides of protein X3 of SARS-CoV Urbani / Binding of serum 6 to linear peptides of protein X4 of SARS-CoV Urbani / Binding of serum 37 to linear peptides of protein X4 of SARS-CoV Urbani / Binding of serum 37 to looped/cyclic peptides of protein X4 of SARS-CoV Urbani / Binding of serum 6 to linear peptides of protein X5 of SARS-CoV Urbani / Binding of serum 37 to linear peptides of protein X5 of SARS-CoV Urbani / Binding of serum 37 to looped/cyclic peptides of protein X5 of SARS-CoV Urbani / Binding of serum 6 to linear peptides of protein N of SARS-CoV Urbani / Binding of serum 37 to linear peptides of protein N of SARS-CoV Urbani / Binding of serum 6 to linear peptide (PEPSCAN-ELISA) / Binding of serum 1a to looped/cyclic peptides of protein N of SARS-CoV Urbani / Binding of serum 1b to looped/cyclic peptides of protein N of SARS-CoV Urbani / Binding of serum 2 to looped/cyclic peptides of protein N of SARS-CoV Urbani / Binding of serum 6 to looped/cyclic peptides of protein N of SARS-CoV Urbani / Binding of serum 37 to looped/cyclic peptides of protein N of SARS-CoV Urbani / Binding of serum 62 to looped/cyclic peptides of protein N of SARS-CoV Urbani / Binding of serum London to looped/cyclic peptides of protein N of SARS-CoV Urbani / Binding of serum SARS-green to looped/cyclic peptides of protein N of SARS-CoV Urbani: unit not given here
Sequence,Recognition of the peptide by the rabbit serum [1],Binding of Control Serum Blood-Bank to Looped peptides [2],Binding of Control serum Blood-bank to linear peptides [2],Binding of Control serum LUMC to linear peptides [2],Binding of Control serum LUMC to looped peptides [2],Binding of serum 1a to linear peptides of protein N of SARS-CoV Urbani [4],Binding of serum 1a to looped/cyclic peptides of protein N of SARS-CoV Urbani [4],Binding of serum 1b to linear peptides of protein N of SARS-CoV Urbani [4],Binding of serum 1b to looped/cyclic peptides of protein N of SARS-CoV Urbani [4],Binding of serum 2 to linear peptides of protein N of SARS-CoV Urbani [4],Binding of serum 2 to looped/cyclic peptides of protein N of SARS-CoV Urbani [4],Binding of serum 6 to linear peptides of protein N of SARS-CoV Urbani [4],Binding of serum 6 to looped/cyclic peptides of protein N of SARS-CoV Urbani [4],Binding of serum 37 to looped/cyclic peptides of protein N of SARS-CoV Urbani [4],Binding of serum 62 to looped/cyclic peptides of protein N of SARS-CoV Urbani [4],Binding of serum London to looped/cyclic peptides of protein N of SARS-CoV Urbani [4],Binding of serum SARS-green to looped/cyclic peptides of protein N of SARS-CoV Urbani [4],Binding of serum SARS-yellow to looped/cyclic peptides of protein N of SARS-CoV Urbani [4],Binding of antibody 03-018 to linear peptides of the N protein of SARS-CoV Urbani [3],Binding of antibody 03-018 to looped/cyclic peptides of the N protein of SARS-CoV Urbani [3],other results
QSNQRSAPRITFGGP,also recognized,0.7,0.6,0.5,0.9,0.2,0.5,0.1,0.3,0.2,0.6,0.1,0.4,0.8,0.7,0.5,0.5,0.7,–,–,Recognition of the peptide by antibody 03-018 [3]: recognized; Binding of serum 37 to linear peptides of protein N of SARS-CoV Urbani [4]: 0.7; Binding of serum 62 to linear peptides of protein N of SARS-CoV Urbani [4]: 0.7; Binding of serum London to linear peptides of protein N of SARS-CoV Urbani [4]: 0.4; Binding of serum SARS-green to linear peptides of protein N of SARS-CoV Urbani [4]: 0.5; Binding of serum SARS-yellow to linear peptides of protein N of SARS-CoV Urbani [4]: 0.5
QYNVTQAFGRRGPEQ,recognized,0.8,0.7,0.6,0.8,–,0.4,–,0.2,–,0.4,–,0.4,0.7,0.6,0.5,0.4,0.5,0.1,0.3,Binding of serum 1a to linear peptide (PEPSCAN-ELISA) [4]: 0.3; Binding of serum 1b to linear peptide (PEPSCAN-ELISA) [4]: 0.1; Binding of serum 2 to linear peptide (PEPSCAN-ELISA) [4]: 0.1; Binding of serum 6 to linear peptide (PEPSCAN-ELISA) [4]: 0.2; Binding of serum 37 to linear peptide (PEPSCAN-ELISA) [4]: 0.6; Binding of serum 62 to linear peptide (PEPSCAN-ELISA) [4]: 0.6; Binding of serum London to linear peptide (PEPSCAN-ELISA) [4]: 0.4; Binding of serum SARS-green to linear peptide (PEPSCAN-ELISA) [4]: 0.5; Binding of serum SARS-yellow to linear peptide (PEPSCAN-ELISA) [4]: 0.6
RFPRGQGVPINTNSG,–,0.6,0.8,0.6,0.5,0.2,0.3,0.1,0.2,0.3,0.4,0.1,0.2,0.5,0.4,0.3,0.5,0.4,0.1,0.2,Binding of a rabbit serum to linear peptides of protein N of SARS-CoV Urbani (Rabbit serum linear peptides) [1]: 0.1; Binding of a rabbit serum to looped/cyclic peptides of protein N of SARS-CoV Urbani (Rabbit serum looped peptides) [1]: 0.5; Binding of serum 37 to linear peptides of protein N of SARS-CoV Urbani [4]: 0.7; Binding of serum 62 to linear peptides of protein N of SARS-CoV Urbani [4]: 0.7; Binding of serum London to linear peptides of protein N of SARS-CoV Urbani [4]: 0.5; Binding of serum SARS-green to linear peptides of protein N of SARS-CoV Urbani [4]: 0.4; Binding of serum SARS-yellow to linear peptides of protein N of SARS-CoV Urbani [4]: 0.6
RGNSPARMASGGGET,–,0.6,0.8,0.7,0.5,–,0.4,–,0.3,–,0.4,–,0.3,0.4,0.4,0.8,0.1,0.1,0.1,0.2,Binding of a rabbit serum to linear peptides of protein N of SARS-CoV Urbani (Rabbit serum linear peptides) [1]: 0.1; Binding of a rabbit serum to looped/cyclic peptides of protein N of SARS-CoV Urbani (Rabbit serum looped peptides) [1]: 0.2; Binding of serum 1a to linear peptide (PEPSCAN-ELISA) [4]: 0.3; Binding of serum 1b to linear peptide (PEPSCAN-ELISA) [4]: 0.1; Binding of serum 2 to linear peptide (PEPSCAN-ELISA) [4]: 0.2; Binding of serum 6 to linear peptide (PEPSCAN-ELISA) [4]: 0.2; Binding of serum 37 to linear peptide (PEPSCAN-ELISA) [4]: 0.5; Binding of serum 62 to linear peptide (PEPSCAN-ELISA) [4]: 0.5; Binding of serum London to linear peptide (PEPSCAN-ELISA) [4]: 0.5; Binding of serum SARS-green to linear peptide (PEPSCAN-ELISA) [4]: 0.1; Binding of serum SARS-yellow to linear peptide (PEPSCAN-ELISA) [4]: 0.5
